US20250361281A1, “AMYLIN RECEPTOR (hAMY3R) AGONISTS WITH IMPROVED CHEMICAL STABILITY” (GUBRA A/S, priority 2022, published 2025)
Starred links: 1 amine or outer side, 2 acyl side, 3 side chain; linkers in the order of their positions; H or OH if unused. Positions of bridges follow the written chain, without caps; N, C: chain ends. Non-standard residues stand in square brackets, D forms with d. Residues, ends and D or L forms follow the SMILES beside them. *: point of attachment. C20 diacid = O=C(O)CCCCCCCCCCCCCCCCCCC(=O)*; γGlu = O=C(O)[C@H](CCC(=O)[*:2])N[*:1]; Hyp = O=C(O)[C@@H]1C[C@@H](O)CN1; CH2 = C([*:1])[*:2]

Columns and labels:
hAM1 receptor = target: T1, hAM1 receptor (Homo sapiens, UniProt O60895+Q16602); test: cAMP assay for in vitro receptor activation, hAM1-R; format: cell-based; details: cells stably overexpressing hAM1 receptor, cAMP accumulation, 30 min stimulation; read-out: hAM1R EC50
T1 construct: monoclonal sub-clone
Protocol: General Protocols for cAMP Assays for Measuring In Vitro Receptor Activation hAMY3-R:
Cells stably overexpressing the hAM1 receptor were obtained from Ogeda (now Astellas Pharma), sub-cloned and a monoclonal cell-line with an appropriate assay-window was expanded, aliquoted and frozen. An aliquot was thawed and plated in DPBS with 0.05% casein and 0.5 mM IBMX as 8000 cells/well in a 384-well format.

[1] = Physical stability of peptide analogues (Thioflavin T fibrillation); format: physicochemical; details: ThT fluorescence, 40° C., shaking, four days; pH 4 or pH 7 buffer
Protocol: General Protocols for Determination of Physical Stability of Peptide Analogues
Peptides were dissolved in buffers (50 mM sodium acetate at pH 4 or 50 mM sodium phosphate at pH 7) and incubated for one hour. The samples were then divided into two replicates of 80 μl in a black 384 well plate (μ-clear, Greiner Bio-One) and mixed with Thioflavin T (ThT) to a final concentration of 4 μM. The plate was sealed and placed in a plate reader (CLARIOstar, BMG) where the temperature was set at 40° C. during the course of the experiment. The samples were further stressed by shaking the plate at 700 rpm (linear) for five minutes before every measurement. The fluorescence was measured every 10 min for four days by exciting the ThT at 450 nm and measuring the emission at 480 nm. For each peptide, the ThT signal over time was smoothened using Local Polynomial Regression fitting (LOESS) as implemented in the statistical programming environment R. For the smoothened data, the maximum ThT signal was normalized in percent between the maximum ThT signal for hAMY and the buffer background.

[2] = Determination of deamidation and isomerization (LC-MS); format: physicochemical; details: 50 mM phosphate buffer pH 7, 40° C., up to 28 days
Protocol: General Protocol for Determination of Deamidation and Isomerization
Peptides were dissolved in 50 mM phosphate buffer (pH 7) and incubated at 40° C. for up to 28 days. The samples were then analysed on a Exploris120 mass spectrometer coupled to a Vanquish Tandem UPLC (both Thermo Fisher) equipped with an Acquity BEH C18 column (1.7 um, 2.1×50 mm, 130A, Waters). Peptides were eluted using a linear gradient starting at 5% over 7.5 min to 70% buffer B at a flow rate of 0.4 mL/min (buffer B=100% acetonitrile with 0.1% formic acid; buffer A=100% water with 0.1% formic acid). Data were acquired in data-dependent acquisition mode at a MS1 resolution of 60.000, and a MS2 resolution of 30.000 in positive mode (Top4). Peptides were fragmented with a normalized collision energy of 25%. Deamidation and isomerization were quantified using area under the curve integration.

[3] = Determination of dimer and HMWP formation (size exclusion chromatography); format: physicochemical; details: 50 mM phosphate buffer pH 7, 40° C., up to 28 days
Protocol: General Protocol for Determination of Dimer and HMWP Formation
Peptides were dissolved in 50 mM phosphate buffer (pH 7) and incubated at 40° C. for up to 28 days. The samples were then analysed using size exclusion chromatography analysis to quantify the amount of High Molecular Weight Products (HMWP), which is an overall term for covalently linked peptide dimers, trimers, and higher order multimers. Analyses were carried out on a Dionex Ultimate 3000 RS UHPLC Focused chromatography system (Thermo Scientific) equipped with a Acquity Protein BEH SEC 1.7 μm 4.6×300 mm 125 Å column (Waters part no 186006506). The solvent system consisted of two mobile phases that are assumed to break all non-covalent interactions between peptides leaving only monomeric peptide and covalent HMWP to be analysed. • Mobile phase A (all v/v %): 95% H2O, 5% MeCN (Acetonitrile), 0.1% TFA (Trifluoroacetic acid) • Mobile phase B (all v/v %): 95% MeCN, 5% H2O, 0.1% TFA
The typically load was 1 μl of 1.0 mg/ml, and the detection signal at 215 nm should optimally be between 0.1 and 1.5 abs units. Isocratic elution was done with 60% mobile phase B and a flow of 0.3 ml/min in 20 minutes. Chromatograms were integrated as HMWP (all peaks in front of the main peak) The amount of the various species was reported as area relative to total area in percentage.

T1 sequence (Q16602 23-461): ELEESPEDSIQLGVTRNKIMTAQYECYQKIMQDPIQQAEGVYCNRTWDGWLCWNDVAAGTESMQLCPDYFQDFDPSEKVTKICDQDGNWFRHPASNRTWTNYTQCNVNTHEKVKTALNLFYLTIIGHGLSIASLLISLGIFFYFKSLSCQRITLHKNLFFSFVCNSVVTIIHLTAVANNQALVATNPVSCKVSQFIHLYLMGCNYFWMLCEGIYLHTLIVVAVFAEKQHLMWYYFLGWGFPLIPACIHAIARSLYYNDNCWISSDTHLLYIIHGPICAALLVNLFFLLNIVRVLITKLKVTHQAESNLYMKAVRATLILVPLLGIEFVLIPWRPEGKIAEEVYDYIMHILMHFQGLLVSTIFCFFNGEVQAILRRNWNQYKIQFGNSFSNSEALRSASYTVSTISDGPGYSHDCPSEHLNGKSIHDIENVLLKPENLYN
T1 sequence (O60895 43-175 partner): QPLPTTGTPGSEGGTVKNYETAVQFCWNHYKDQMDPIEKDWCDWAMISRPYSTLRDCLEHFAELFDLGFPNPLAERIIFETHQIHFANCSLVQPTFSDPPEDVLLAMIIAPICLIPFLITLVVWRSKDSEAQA

EC50 (hAM1 receptor): > 5 µM
Fibril formation [1]: No
Deamidation [2]: < 5%
Isomerization [2]: 1.2%
Deamidation ([2]; listed as 4): <5%
Dimerization and HMWP formation [3]: 2%
Compound: CC[C@H](C)[C@H](NC(=O)[C@H](CCC(N)=O)NC(=O)[C@H](CCC(=O)O)NC(=O)[C@H](C)NC(=O)[C@H](CC(C)C)NC(=O)[C@H](CCCNC(=N)N)NC(=O)[C@H](C)NC(=O)[C@@H](NC(=O)[C@@H](NC(=O)[C@@H]1CSCSC[C@H](NC(=O)[C@H](CCCCN)NC(=O)CC[C@H](NC(=O)CCCCCCCCCCCCCCCCCCC(=O)O)C(=O)O)C(=O)N[C@@H](CC(C)C)C(=O)N[C@@H]([C@@H](C)O)C(=O)N[C@@H](C)C(=O)N[C@@H]([C@@H](C)O)C(=O)N1)[C@@H](C)O)C(C)C)C(=O)N[C@@H](C)C(=O)N[C@@H](CCC(N)=O)C(=O)N[C@@H](Cc1ccccc1)C(=O)N[C@H](C(=O)N[C@@H](CC(=O)O)C(=O)N[C@@H](CCCCN)C(=O)N[C@@H](CC(=O)O)C(=O)N[C@@H](CCCCN)C(=O)N[C@@H](CCC(=O)O)C(=O)N[C@@H](CC(N)=O)C(=O)N[C@H](C(=O)N[C@@H](C)C(=O)N1CCC[C@H]1C(=O)N1CCC[C@H]1C(=O)N[C@H](C(=O)N[C@@H](C)C(=O)N[C@H](C(=O)NCC(=O)N[C@@H](CO)C(=O)N[C@@H](C)C(=O)NCC(=O)N1C[C@H](O)C[C@H]1C(N)=O)C(C)C)[C@@H](C)O)C(C)C)[C@@H](C)O [SEQ ID NO: 4] ({C20 diacid-γGlu}-KCLTATCTVARLAEQIAQFTDKDKENVAPPTAVGSAG[Hyp]-NH2; linker 2-7 via CH2)
